The values below are quoted from earlier work in patent US20120141611A1, “METHODS AND COMPOSITIONS USING ERGOTHIONEINE TO TREAT A VARIETY OF HEALTH RELATED FACTORS” (Oxis International Inc., priority 2010, published 2012).

For data set [1] the following is noted: 537 osteoarthritis patients, after 27 weeks; cited from earlier work.
For data set [2] the following is noted: people taking vitamin C supplements, 1,032 subjects; cited from earlier work.
A further data set concerns intestinal polyps. The conditions noted are these: mouse, in vivo; cited from earlier work.
For data set [3] the following is noted: single elderly person, stable seven years later; cited from earlier work.

hyaluronic acid: the Joint pain result in data set [1] was “significantly reduce joint pain while resting and while walking”.

Regarding `O=C1O[C@H]([C@@H](O)CO)C(O)=C1O` [vitamin C], the “Reduced likelihood of developing osteoarthritis in the knee” value in data set [2] is 11%.

Regarding `COc1cc(/C=C/C(=O)CC(=O)/C=C/c2ccc(O)c(OC)c2)ccc1O` [curcumin], the “Reduction of intestinal polyps” value with intestinal polyps is listed as 75%.

Regarding Cyanocobalamin [vitamin B12], the Dementia outcome in data set [3] is recorded as “their dementia disappeared”.
